“Also recorded” adds a separate entry of the source.
Key:
[1] = T-cell dependent and independent B-cell responses to TNP-KLH, TNP-LPS, TNP-Ficoll (serum IgG, IgM ELISA); format: in vivo, mouse; conditions: 10 mg/kg
Procedure: Serum was isolated at various time points and IgG and IgM levels were measured by ELISA. […] Error bars represent standard deviations from 3 replicate ELISAs performed on samples from 5 mice in each treatment group.
(§1) The primary immunological processes involved in MS and EAE are T-cell mediated and the primary treatment paradigms are based on immunomodulatory drugs (T. Kopadze et al., Arch Neurol, 63, 1572 (2006); J. M. Greer et al., J Immunol, 180, 6402 (2007), M. P. Pender and J. M. Greer, curr Allergy Asthma Rep, 7, 285 (2007)).

[2] = tested on: dopamine D2 and D3 receptor; format: cell-based, rat
Excerpt: Error bars indicate standard deviations of 3 replicate measurements.
OPCs express mAChRs, predominantly subtypes M1, M3, and M5 (F. Ragheb et al., J Neurochem, 77, 1396 (2001)). […] Activation of M1 and M3 mAChRs is coupled to downstream signal transduction events through phospholipase C, which results in increased intracellular calcium concentrations (F. Ragheb et al., J Neurochem, 77, 1396 (2001)) (FIG. 23C). M2 and M4 mAChR activation inhibits adenylatecyclase, leading to decreased intracellular cAMP levels (C. C. Felder, FASEB J, 9, 619 (1995); M. Lopez-Ilasaca et al., Science, 275, 394 (1997)). […] Acetylcholine is a known regulator of OPC proliferation and, as such, muscarinic receptor subtypes represent a reasonable class of therapeutic targets for the modulation of OPC proliferation and differentiation (F. De Angelis et al., Dev Neurobiol, (2011)).

[3] = tested on: OPCs; assay: Western blot of MBP and MOG in compound treated OPCs; format: cell-based, rat; conditions: OPCs treated 6 days
Excerpt: FIG. 2A-C. Neurotransmitter receptor modulating agents induce the differentiation of OPCs to a myelinating oligodendrocyte cell fate. (A) Western blot analysis of OPCs treated with compounds at EC90 concentrations for 6 days. Total protein was isolated from cell pellets and probed for myelin basic protein (MBP) and myelin oligodendrocyte glycoprotein (MOG) using specific antibodies. (B-C) Quantitative RT-PCR (qRT-PCR) analysis of OPCs treated with compounds at EC90 concentrations for 6 days. Total RNA was isolated from cell pellets and reverse transcribed. MBP and MOG expression was quantified using specific probes and Taqman-based qRT-PCR. Expression was normalized to the internal controls β-actin and GAPDH. Fold change in gene expression over DMSO treated control cells is plotted for MBP (B) and MOG (C).
FIG. 13. […] After 6 days in culture, cells were analyzed for MBP and MOG expression by Western blot.

[4] = tested on: OPCs; assay: Gene expression profile of treated OPCs (Affymetrix rat genome arrays); format: cell-based; conditions: 6 days
Procedure: FIG. 15. Gene expression profile of OPCs differentiated to oligodendrocytes by benztropine treatment. […] OPCs from the same passage were also pelleted and frozen. Total RNA was isolated from the cells and gene expression analysis was performed using rat genome arrays from Affymetrix. […] Data are represented as fold change over DMSO treated controls.
(A) Increased expression (fold change) of mature oligodendrocyte genes in compound treated cells as compared to DMSO treated cells. (B) Decreased expression (fold change) of OPC genes in compound treated cells as compared to DMSO treated cells.
Benztropine-induced in vitro differentiation of rodent OPCS was confirmed by evaluating the transcription and translation levels of the oligodendrocyte specific markers MBP and myelin oligodendroglial glycoprotein (MOG) by RT-PCR and Western blot analysis, respectively (FIGS. 7B and 13). Additionally, in vitro OPC differentiation activity was assessed by immunofluorescent analysis using multiple markers specifically expressed in mature oligodendrocytes (including MBP, MOG, 2′,3′-cyclic-nucleotide 3′-phosphodiesterase (CNP), […] (GalC), oligodendrocyte marker O1 (O1) and oligodendrocyte marker O4 (O4)) following six days of compound treatment (FIG. 14).

[5] = tested on: total splenocytes stimulated with CD3; assay: T-cell activation (CD69, CD25) and proliferation (CFSE) in vitro; format: cell-based, mouse; conditions: versus DMSO
Excerpt: (A-F) Total splenocytes were isolated from mice and stimulated with CD3 and analyzed by flow cytometry for expression of T-cell activation markers CD69 and CD25 and T-cell proliferation using CFSE. (A) Unstimulated cells. (B) DMSO treated cells. […] The numbers represent percentage gated populations positive for the given marker.
as §1

[6] = tested on: caspase 3; assay: Western blot of caspase 3 and cleaved caspase 3 in differentiated OPCs; conditions: benztropine 1.5 uM, thyroid hormone 1 uM, 6 days
Excerpt: FIG. 32. Western blot analysis of cleaved caspase activity in differentiated OPCs. […] Total protein was isolated and analyzed by Western blot using a specific antibody for the expression of caspase 3 and cleaved caspase 3.

## CN1[C@@H]2CC[C@H]1C[C@@H](OC(c1ccccc1)c1ccccc1)C2 [benztropine]
[1]
  TNP-Ficoll induced B-cell responses (serum IgM and IgG): no effect on IgG and IgM production
  TNP-KLH induced B-cell responses (serum IgM and IgG): no effect on IgG and IgM production
  TNP-LPS induced B-cell responses (serum IgM and IgG): no effect on IgG and IgM production
[2]
  effect of quinpirole or haloperidol on benztropine induced differentiation / dopamine D2 and D3 receptor signaling: neither the dopamine receptor antagonist haloperidol, nor the dopamine receptor agonist quinpirole affected; also recorded: no effect
[3]
  MBP and MOG expression (Western blot): positive
[3]; listed as Benztropine
  MBP and MOG expression (Western blot): induces differentiation of OPCs to mature oligodendrocytes
[4]; versus DMSO
  expression of OPC genes and mature oligodendrocyte genes: Downregulation of OPC specific genes required for proliferation; also recorded: downregulation of OPC genes and an upregulation of mature oligodendrocyte genes
[4]; benztropine 2.3 uM
  global clustering of gene expression profiles: cluster with those obtained from T3 treated positive control cells; also recorded: clustering of benztropine treated samples with thyroid hormone treated samples
[5]
  T-cell activation (CD69, CD25): no effect
  T-cell proliferation (CFSE): no effect
[6]
  expression of cleaved caspase 3: No expression of cleaved caspase 3 was detected

From US11246873B2, “Directed differentiation of oligodendrocyte precursor cells to a myelinating cell fate” (The Scripps Research Institute, priority 2011, dated 2022)
